According to publication PMC2656571 (Journal of medicinal chemistry, 2008):

Legend:
Format in all cases: cell-based
MT-2 cells = test: In vitro cytotoxicity on MT-2 cells; conditions: human
HIV-1 IIIB = test: Inhibition of HIV-1 IIIB replication in MT-2 cells; conditions: CC50 (MT-2 cells) / EC50 (p24 production)
HIV-1 = test: HIV-1-mediated cytopathic effect; conditions: data not shown
[1] = tested on: HIV-1-mediated cell-cell fusion; test: HIV-1-mediated cell-cell fusion; conditions: data not shown

Structure (SMILES)	CC50 at 4 days (MT-2 cells) [µM]	SI (selectivity index, CC50/EC50) (HIV-1 IIIB)	Inhibition of HIV-1-mediated cytopathic effect (CPE) (HIV-1)	Inhibition of HIV-1-mediated cell-cell fusion [1]
O=C(O)c1ccc(Cn2cccc2)cc1 [Compound A9, N-(4-Carboxy)benzylpyrrole]	> 498	>7.78		
O=C(O)c1cc(-n2cccc2)ccc1O [Compound A2, N-(3-Carboxy-4-hydroxy)phenylpyrrole]	> 493	>50.99		
Cc1ccc(C)n1Cc1ccc(C(=O)O)cc1 [Compound A19, N-(4-Carboxy)benzyl-2,5-dimethylpyrrole]	299	19.20		
O=C(O)c1ccc(-n2cccc2)cc1 [Compound A6, N-(4-Carboxy)phenylpyrrole]	> 535	>7.72		
Cc1ccc(C)n1-c1ccc(O)c(C(=O)O)c1 [Compound A12, N-(3-Carboxy-4-hydroxy)phenyl-2,5-dimethylpyrrole]			effectively inhibited	effectively inhibited
O=C(O)c1ccc(-c2noc(C(F)(F)F)n2)cc1 [Compound B10, 3-(4-Carboxyphenyl)-5-(trifluoromethyl)-1,2,4-oxadiazole]		> 16		
O=C(O)Cc1ccc(Cn2cccc2)cc1 [Compound A10, N-(4-Carboxymethene)benzylpyrrole]	> 465			
O=C(O)c1ccc(-c2noc(CCl)n2)cc1 [Compound B6, 3-(4-Carboxy)phenyl-5-chloromethyl-1,2,4-oxadiazole]		> 16		
O=C(O)Cc1ccc(-n2cccc2)cc1 [Compound A7, N-(4-Carboxymethene)phenylpyrrole]	> 498	>1.34		
Cc1ccc(C)n1-c1ccc(Cl)cc1C(=O)O [Compound A18, N-(4-Chloro-2-carboxy)phenyl-2,5-dimethylpyrrole]	> 400	>46.73		
